Measurements reported in ChEMBL document CHEMBL1201862, “PubChem BioAssay data set” (2004).
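Cultured in 96-well plates, cells were exposed to test compound for 48 hours across five concentrations. Here, GI50 denotes the concentration required for 50% inhibition of growth.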 Activity calls are given as the source filed them. Cut-off read from the data, not from the text of the source: active = GI50 up to about 1.1 µM and inactive = higher.

How the values were obtained:
Test in all cases: DTP human tumour cell line panel, 48 h
M19-MEL = tested on: M19-MEL
DMS-273 = tested on: DMS-273
HOP-18 = tested on: HOP-18
KM-20L2 = tested on: KM-20L2
DLD-1 = tested on: DLD-1
RXF 631 = tested on: RXF 631
SNB-78 = tested on: SNB-78
LXFL 529 = tested on: LXFL 529
XF498 = tested on: XF498

## NS(=O)(=O)c1ccc(NC(=O)COC(=O)c2cccc3c(=O)c4ccccc4[nH]c23)cc1
M19-MEL
  GI50: 31.3 µM (inactive)
DMS-273
  GI50: 37.2 µM (inactive)
HOP-18
  GI50: 20.1 µM (inactive)
KM-20L2
  GI50: > 100 µM (inactive)
DLD-1
  GI50: 45 µM (inactive)
RXF 631
  GI50: 33.1 µM (inactive)
SNB-78
  GI50: 17.4 µM (inactive)
LXFL 529
  GI50: 7.93 µM (inactive)

## C[P+]1(Cc2ccccc2)CCCC1
XF498
  GI50: < 0.01 µM (active)
M19-MEL
  GI50: > 100 µM (inactive)
DMS-273
  GI50: > 100 µM (inactive)
HOP-18
  GI50: 63.7 µM (inactive)
KM-20L2
  GI50: > 100 µM (inactive)
DLD-1
  GI50: > 100 µM (inactive)
SNB-78
  GI50: > 100 µM (inactive)
LXFL 529
  GI50: > 100 µM (inactive)

## Nc1nc(-c2ccccc2)cc(-c2cc(Cl)ccc2O)n1
DMS-273
  GI50: 44.7 µM (inactive)
HOP-18
  GI50: > 100 µM (inactive)
KM-20L2
  GI50: > 100 µM (inactive)
DLD-1
  GI50: 98.2 µM (inactive)
RXF 631
  GI50: > 100 µM (inactive)
SNB-78
  GI50: > 100 µM (inactive)
LXFL 529
  GI50: 48.3 µM (inactive)

## COc1cc(OC)cc(C(=O)Cc2c(C(=O)c3ccccc3)c3ccccc3n2C(=O)c2ccccc2)c1
XF498
  GI50: 21.4 µM (inactive)
M19-MEL
  GI50: 32 µM (inactive)
DMS-273
  GI50: 27.4 µM (inactive)
KM-20L2
  GI50: 50.6 µM (inactive)
DLD-1
  GI50: 20.3 µM (inactive)
SNB-78
  GI50: 38.3 µM (inactive)
LXFL 529
  GI50: 9.95 µM (inactive)

## O=C1C2=C(c3ccccc31)C(c1cccc(Cl)c1)NC(S)=N2 (stereo unspecified)
XF498
  GI50: > 100 µM (inactive)
M19-MEL
  GI50: > 100 µM (inactive)
DMS-273
  GI50: 80.9 µM (inactive)
KM-20L2
  GI50: > 100 µM (inactive)
DLD-1
  GI50: > 100 µM (inactive)
LXFL 529
  GI50: > 100 µM (inactive)

## O=C1C=CC(=O)N1Nc1ccc([N+](=O)[O-])cc1[N+](=O)[O-]
M19-MEL
  GI50: > 89.7 µM (inactive)
DMS-273
  GI50: > 100 µM (inactive)
KM-20L2
  GI50: > 100 µM (inactive)
DLD-1
  GI50: > 100 µM (inactive)
SNB-78
  GI50: > 100 µM (inactive)
LXFL 529
  GI50: > 44.5 µM (inactive)

## CC(C)CN(CC(C)C)C(=O)C1CCCC[C@@H]1C(=O)O (stereo partly specified)
M19-MEL
  GI50: > 100 µM (inactive)
DMS-273
  GI50: > 100 µM (inactive)
HOP-18
  GI50: > 100 µM (inactive)
KM-20L2
  GI50: > 100 µM (inactive)
DLD-1
  GI50: > 100 µM (inactive)
RXF 631
  GI50: > 100 µM (inactive)
SNB-78
  GI50: > 100 µM (inactive)
LXFL 529
  GI50: > 100 µM (inactive)

## CC(C(=O)Oc1ccc2ccccc2c1-c1c(O)ccc2ccccc12)c1ccccc1 (stereo unspecified)
XF498
  GI50: 14.2 µM (inactive)
M19-MEL
  GI50: 15.5 µM (inactive)
DMS-273
  GI50: > 10 µM (inactive)
RXF 631
  GI50: 17.2 µM (inactive)
SNB-78
  GI50: 15.4 µM (inactive)
LXFL 529
  GI50: 14.1 µM (inactive)

## O=C(/C=C/c1cccc([N+](=O)[O-])c1)c1ccc([N+](=O)[O-])cc1
XF498
  GI50: > 100 µM (inactive)
M19-MEL
  GI50: > 100 µM (inactive)
DMS-273
  GI50: > 100 µM (inactive)
KM-20L2
  GI50: > 100 µM (inactive)
DLD-1
  GI50: > 100 µM (inactive)
RXF 631
  GI50: > 100 µM (inactive)
SNB-78
  GI50: > 100 µM (inactive)
LXFL 529
  GI50: > 100 µM (inactive)

## COc1ccccc1NC(=O)CC(=O)n1nc(-c2ccccc2)c(/N=N/c2ccccc2[N+](=O)[O-])c1-c1ccccc1
XF498
  GI50: > 100 µM (inactive)
M19-MEL
  GI50: 51.2 µM (inactive)
DMS-273
  GI50: > 100 µM (inactive)
HOP-18
  GI50: > 100 µM (inactive)
KM-20L2
  GI50: > 100 µM (inactive)
DLD-1
  GI50: 42.3 µM (inactive)
RXF 631
  GI50: > 100 µM (inactive)
SNB-78
  GI50: > 100 µM (inactive)
LXFL 529
  GI50: 83.2 µM (inactive)

## O=C(COc1ccc(Cl)cc1)N1N=C(c2ccc(Cl)cc2)CC1(O)c1ccccc1 (stereo unspecified)
XF498
  GI50: 27.8 µM (inactive)
M19-MEL
  GI50: 24 µM (inactive)
DMS-273
  GI50: 15.9 µM (inactive)
HOP-18
  GI50: 39.2 µM (inactive)
KM-20L2
  GI50: 15.4 µM (inactive)
DLD-1
  GI50: 13 µM (inactive)
SNB-78
  GI50: > 38.5 µM (inactive)
LXFL 529
  GI50: 15 µM (inactive)

## CC1=C[C@H]2C[C@@]3(C)O[C@@H]([C@]4(C)CC[C@H]([C@@H](C)C(=O)O)OO4)CC3C(C)(C)[C@H]2CC1 (stereo partly specified)
XF498
  GI50: 0.0573 µM (active)
M19-MEL
  GI50: 1.67 µM (inactive)
DMS-273
  GI50: 0.526 µM (active)
KM-20L2
  GI50: 2.17 µM (inactive)
DLD-1
  GI50: 0.916 µM (active)
SNB-78
  GI50: 1.08 µM (active)
LXFL 529
  GI50: 0.612 µM (active)

## NC(=S)N/N=C(/CC(=O)c1ccc([N+](=O)[O-])cc1)C(=O)Nc1ncc([N+](=O)[O-])s1
XF498
  GI50: > 100 µM (inactive)
M19-MEL
  GI50: > 100 µM (inactive)
KM-20L2
  GI50: > 100 µM (inactive)
DLD-1
  GI50: > 100 µM (inactive)
RXF 631
  GI50: > 100 µM (inactive)
SNB-78
  GI50: > 100 µM (inactive)
LXFL 529
  GI50: 92.5 µM (inactive)

## COc1ccc(CCCN2c3ccccc3Sc3ccccc32)cc1
XF498
  GI50: > 100 µM (inactive)
DMS-273
  GI50: 33.5 µM (inactive)
HOP-18
  GI50: > 100 µM (inactive)
KM-20L2
  GI50: 53.8 µM (inactive)
DLD-1
  GI50: > 100 µM (inactive)
SNB-78
  GI50: 91.8 µM (inactive)
LXFL 529
  GI50: 73.1 µM (inactive)

## CC(=O)C1C(=O)NC(=O)C1=O (stereo unspecified)
XF498
  GI50: > 100 µM (inactive)
M19-MEL
  GI50: > 100 µM (inactive)
DMS-273
  GI50: > 100 µM (inactive)
HOP-18
  GI50: > 100 µM (inactive)
KM-20L2
  GI50: > 100 µM (inactive)
SNB-78
  GI50: > 100 µM (inactive)
LXFL 529
  GI50: > 100 µM (inactive)

## CC(C)N(C(=O)C1(C)CC1)C(C)C
XF498
  GI50: > 100 µM (inactive)
M19-MEL
  GI50: > 100 µM (inactive)
DMS-273
  GI50: > 100 µM (inactive)
HOP-18
  GI50: > 100 µM (inactive)
KM-20L2
  GI50: > 100 µM (inactive)
DLD-1
  GI50: > 100 µM (inactive)
RXF 631
  GI50: > 100 µM (inactive)
SNB-78
  GI50: > 100 µM (inactive)
LXFL 529
  GI50: > 100 µM (inactive)

## CC1=C(C(=O)Nc2ccc([N+](=O)[O-])cc2)C(c2ccco2)C(C(=O)Nc2ccc([N+](=O)[O-])cc2)=C(C)N1
XF498
  GI50: 0.6 µM (active)
M19-MEL
  GI50: 13.1 µM (inactive)
KM-20L2
  GI50: 17.4 µM (inactive)
DLD-1
  GI50: 9.68 µM (inactive)
RXF 631
  GI50: 35.8 µM (inactive)
SNB-78
  GI50: 11.9 µM (inactive)
LXFL 529
  GI50: 6.75 µM (inactive)

## N#Cc1ccc(C2OCC3CC=CCC3CO2)cc1 (stereo unspecified)
XF498
  GI50: > 100 µM (inactive)
M19-MEL
  GI50: 84.7 µM (inactive)
HOP-18
  GI50: > 100 µM (inactive)
KM-20L2
  GI50: > 100 µM (inactive)
DLD-1
  GI50: 55 µM (inactive)
RXF 631
  GI50: 41.7 µM (inactive)
SNB-78
  GI50: > 100 µM (inactive)
LXFL 529
  GI50: 47.1 µM (inactive)

## Clc1ccc2c(c1)[nH]c1c2nc2sccn21
XF498
  GI50: > 100 µM (inactive)
M19-MEL
  GI50: > 100 µM (inactive)
DMS-273
  GI50: > 100 µM (inactive)
HOP-18
  GI50: > 100 µM (inactive)
KM-20L2
  GI50: > 100 µM (inactive)
DLD-1
  GI50: > 100 µM (inactive)
RXF 631
  GI50: > 100 µM (inactive)
SNB-78
  GI50: > 100 µM (inactive)
LXFL 529
  GI50: > 100 µM (inactive)

## O=C(O)c1cc(=O)c2c([nH]c3ccccc32)s1
XF498
  GI50: > 100 µM (inactive)
M19-MEL
  GI50: > 100 µM (inactive)
KM-20L2
  GI50: > 100 µM (inactive)
DLD-1
  GI50: > 100 µM (inactive)
RXF 631
  GI50: > 100 µM (inactive)
SNB-78
  GI50: > 100 µM (inactive)
LXFL 529
  GI50: > 100 µM (inactive)

## CCOc1ccc(/N=N/c2c(-c3ccccc3)nn(C(=O)CC(=O)Nc3cccc(C)c3)c2-c2ccccc2)cc1
XF498
  GI50: 95.1 µM (inactive)
DMS-273
  GI50: > 100 µM (inactive)
HOP-18
  GI50: > 100 µM (inactive)
KM-20L2
  GI50: 85.5 µM (inactive)
DLD-1
  GI50: 63.2 µM (inactive)
RXF 631
  GI50: 27.5 µM (inactive)
SNB-78
  GI50: > 100 µM (inactive)
LXFL 529
  GI50: > 100 µM (inactive)

## C[P+](C)(C)C
XF498
  GI50: > 100 µM (inactive)
M19-MEL
  GI50: > 100 µM (inactive)
HOP-18
  GI50: > 100 µM (inactive)
KM-20L2
  GI50: > 100 µM (inactive)
DLD-1
  GI50: > 100 µM (inactive)
RXF 631
  GI50: > 100 µM (inactive)
SNB-78
  GI50: > 100 µM (inactive)
LXFL 529
  GI50: > 100 µM (inactive)

## COC(=O)CC(=O)NCC1=CCC(=O)CC1
XF498
  GI50: > 100 µM (inactive)
M19-MEL
  GI50: > 100 µM (inactive)
DMS-273
  GI50: > 100 µM (inactive)
DLD-1
  GI50: > 100 µM (inactive)
SNB-78
  GI50: > 100 µM (inactive)
LXFL 529
  GI50: > 100 µM (inactive)

## COc1ccc(/C=C(\Cl)c2ccc(OC)cc2)cc1
M19-MEL
  GI50: > 100 µM (inactive)
DMS-273
  GI50: > 100 µM (inactive)
KM-20L2
  GI50: > 100 µM (inactive)
DLD-1
  GI50: > 100 µM (inactive)
LXFL 529
  GI50: > 100 µM (inactive)
